US5502035A, “N-terminus modified analogs of LHRH” (Tap Holdings Inc., priority 1994, dated 1996)
Non-standard residues stand in square brackets, D forms with d. Residues, ends and D or L forms follow the SMILES beside them. *: point of attachment. dPhe(4-Cl) = N[C@H](Cc1ccc(Cl)cc1)C(=O)O; d2Nal = N[C@H](Cc1ccc2ccccc2c1)C(=O)O; d(hCit) = NC(=O)NCCCC[C@@H](N)C(=O)O; Lys(iPr) = CC(C)NCCCC[C@H](N)C(=O)O; NMeY = CN[C@@H](Cc1ccc(O)cc1)C(=O)O; d3Pal = N[C@H](Cc1cccnc1)C(=O)O; Nicotinoyl = O=C(c1cccnc1)*; X1 = O=C([C@@H]1CCCO1)*; GABA = NCCCC(=O)O; βAla = NCCC(=O)O

Biological target: T1, LHRH (Rattus norvegicus, UniProt P30969)
T1 construct: endogenous in cells; host or cells: rat pituitary cells (own knowledge of the cited Haviv 1989 method)
T1 sequence (P30969 1-327): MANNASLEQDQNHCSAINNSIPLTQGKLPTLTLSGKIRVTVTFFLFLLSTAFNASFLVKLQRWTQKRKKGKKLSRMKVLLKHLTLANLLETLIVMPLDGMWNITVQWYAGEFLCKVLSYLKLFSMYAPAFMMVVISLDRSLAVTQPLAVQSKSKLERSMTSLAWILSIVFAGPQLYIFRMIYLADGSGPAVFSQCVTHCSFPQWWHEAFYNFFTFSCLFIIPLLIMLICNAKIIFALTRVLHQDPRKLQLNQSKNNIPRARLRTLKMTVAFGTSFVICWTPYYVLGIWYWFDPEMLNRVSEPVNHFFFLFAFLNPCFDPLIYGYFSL
Assay: in vitro test for LHRH antagonist potency (pA2)
Assay type: cell-based
Conditions: negative logarithm of the antagonist concentration required to shift the response curve produced by the agonist leuprolide to two-fold higher concentration
Procedure, shortened: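 Rat LHRH receptor in vitro functional test; pA2 = negative log of the antagonist concentration shifting the leuprolide agonist response curve to two-fold higher concentration.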

SMILES | Kb
CC(C)C[C@H](NC(=O)[C@@H](CCCCNC(=O)c1cccnc1)NC(=O)[C@H](Cc1ccc(O)cc1)N(C)C(=O)[C@H](CO)NC(=O)[C@@H](Cc1cccnc1)NC(=O)[C@@H](Cc1ccc(Cl)cc1)NC(=O)[C@H](Cc1ccc2ccccc2c1)NC(=O)CNC(=O)[C@@H]1CCCO1)C(=O)N[C@@H](CCCCNC(C)C)C(=O)N1CCC[C@H]1C(=O)N[C@H](C)C(N)=O [Example 81, (S)-2-Tetrahydrofuroyl-Gly-2Nal-D4ClPhe-D3Pal-Ser-NMeTyr-DLys(N-epsilon-Nicotinyl) -Leu-Lys(N-epsilon-Isopropyl)-Pro-DAlaNH2] | 0.891 nM
CC(C)C[C@H](NC(=O)[C@@H](CCCCNC(=O)c1cccnc1)NC(=O)[C@H](Cc1ccc(O)cc1)N(C)C(=O)[C@@H](CO)NC(=O)[C@@H](Cc1cccnc1)NC(=O)[C@@H](Cc1ccc(Cl)cc1)NC(=O)[C@@H](Cc1ccc2ccccc2c1)NC(=O)CNC(=O)[C@@H]1CCCO1)C(=O)N[C@@H](CCCCNC(C)C)C(=O)N1CCC[C@H]1C(=O)N[C@H](C)C(N)=O [Example 82, N (S)-2-Tetrahydrofuroyl-Gly-D2Nal-D4ClPhe-D3Pal-DSer-NMeTyr-DLys(N-epsilon-Nicotinyl) -Leu-Lys(N-epsilon-Isopropyl)-Pro-DAlaNH2] | 1.12 nM
CC(C)C[C@H](NC(=O)[C@@H](CCCCNC(=O)c1cccnc1)NC(=O)[C@H](Cc1ccc(O)cc1)N(C)C(=O)[C@H](CO)NC(=O)[C@H](Cc1cccnc1)NC(=O)[C@@H](Cc1ccc(Cl)cc1)NC(=O)[C@@H](Cc1ccc2ccccc2c1)NC(=O)CNC(=O)[C@@H]1CCCO1)C(=O)N[C@@H](CCCCNC(C)C)C(=O)N1CCC[C@H]1C(=O)N[C@H](C)C(N)=O [Example 83, N (S)-2-Tetrahydrofuroyl-Gly-D2Nal-D4ClPhe-3Pal-Ser-NMeTyr-DLys(N-epsilon-Nicotinyl) -Leu-Lys(N-epsilon-Isopropyl)-Pro-DAlaNH2] | 0.0112 nM
CC(C)C[C@H](NC(=O)[C@H](CCCCNC(=O)c1cccnc1)NC(=O)[C@H](Cc1ccc(O)cc1)N(C)C(=O)[C@H](CO)NC(=O)[C@@H](Cc1cccnc1)NC(=O)[C@@H](Cc1ccc(Cl)cc1)NC(=O)[C@@H](Cc1ccc2ccccc2c1)NC(=O)CNC(=O)[C@@H]1CCCO1)C(=O)N[C@@H](CCCCNC(C)C)C(=O)N1CCC[C@H]1C(=O)N[C@H](C)C(N)=O [Example 85, N (S)-2-Tetrahydrofuroyl-Gly-D2Nal-D4ClPhe-D3Pal-Ser-NMeTyr-Lys(N-epsilon-Nicotinyl) -Leu-Lys(N-epsilon-Isopropyl)-Pro-DAlaNH2] | 0.0112 nM
CC(C)C[C@H](NC(=O)[C@@H](CCCCNC(=O)c1cccnc1)NC(=O)[C@H](Cc1ccc(O)cc1)N(C)C(=O)[C@H](CO)NC(=O)[C@@H](Cc1cccnc1)NC(=O)[C@H](Cc1ccc(Cl)cc1)NC(=O)[C@@H](Cc1ccc2ccccc2c1)NC(=O)CNC(=O)[C@@H]1CCCO1)C(=O)N[C@@H](CCCCNC(C)C)C(=O)N1CCC[C@H]1C(=O)N[C@H](C)C(N)=O [Example 86, N (S)-2-Tetrahydrofuroyl-Gly-D2Nal-4ClPhe-D3Pal-Ser-NMeTyr-DLys(N-epsilon-Nicotinyl) -Leu-Lys(N-epsilon-Isopropyl)-Pro-DAlaNH2] | 0.141 nM
CC(C)C[C@@H](NC(=O)[C@@H](CCCCNC(=O)c1cccnc1)NC(=O)[C@H](Cc1ccc(O)cc1)N(C)C(=O)[C@H](CO)NC(=O)[C@@H](Cc1cccnc1)NC(=O)[C@@H](Cc1ccc(Cl)cc1)NC(=O)[C@@H](Cc1ccc2ccccc2c1)NC(=O)CNC(=O)[C@@H]1CCCO1)C(=O)N[C@@H](CCCCNC(C)C)C(=O)N1CCC[C@H]1C(=O)N[C@H](C)C(N)=O [Example 87, N (S)-2-Tetrahydrofuroyl-Gly-D2Nal-D4ClPhe-D3Pal-Ser-NMeTyr-DLys(N-epsilon-Nicotinyl) -DLeu-Lys(N-epsilon-Isopropyl)-Pro-DAlaNH2] | 0.269 nM
CC(C)C[C@H](NC(=O)[C@@H](CCCCNC(=O)c1cccnc1)NC(=O)[C@H](Cc1ccc(O)cc1)N(C)C(=O)[C@H](CO)NC(=O)[C@@H](Cc1cccnc1)NC(=O)[C@@H](Cc1ccc(Cl)cc1)NC(=O)[C@@H](Cc1ccc2ccccc2c1)NC(=O)CNC(=O)[C@@H]1CCCO1)C(=O)N[C@@H](CCCCNC(C)C)C(=O)N1CCC[C@@H]1C(=O)N[C@H](C)C(N)=O [Example 88, N (S)-2-Tetrahydrofuroyl-Gly-D2Nal-D4ClPhe-D3Pal-Ser-NMeTyr-DLys(N-epsilon-Nicotinyl) -Leu-Lys(N-epsilon-Isopropyl)-DPro-DAlaNH2] | 0.158 nM
CC(C)C[C@H](NC(=O)[C@@H](CCCCNC(=O)c1cccnc1)NC(=O)[C@H](Cc1ccc(O)cc1)N(C)C(=O)[C@H](CO)NC(=O)[C@@H](Cc1cccnc1)NC(=O)[C@@H](Cc1ccc(Cl)cc1)NC(=O)[C@@H](Cc1ccc2ccccc2c1)NC(=O)CNC(=O)[C@@H]1CCCO1)C(=O)N[C@H](CCCCNC(C)C)C(=O)N1CCC[C@H]1C(=O)N[C@H](C)C(N)=O [Example 89, N (S)-2-Tetrahydrofuroyl-Gly-D2Nal-D4ClPhe-D3Pal-Ser-NMeTyr-DLys(N-epsilon-Nicotinyl) -Leu-DLys(N-epsilon-Isopropyl)-Pro-DAlaNH2] | 0.132 nM
CC(C)C[C@H](NC(=O)[C@@H](CCCCNC(=O)c1cccnc1)NC(=O)[C@@H](Cc1ccc(O)cc1)N(C)C(=O)[C@H](CO)NC(=O)[C@@H](Cc1cccnc1)NC(=O)[C@@H](Cc1ccc(Cl)cc1)NC(=O)[C@@H](Cc1ccc2ccccc2c1)NC(=O)CNC(=O)[C@@H]1CCCO1)C(=O)N[C@@H](CCCCNC(C)C)C(=O)N1CCC[C@H]1C(=O)N[C@H](C)C(N)=O [Example 90, N (S)-2-Tetrahydrofuroyl-Gly-D2Nal-D4ClPhe-D3pal-Ser-DNMeTyr-DLys(N-epsilon-Nicotinyl) -Leu-Lys(N-epsilon-Isopropyl)-pro-DAlaNH2] | 0.457 nM
CC(C)C[C@H](NC(=O)[C@@H](CCCCNC(N)=O)NC(=O)[C@H](Cc1ccc(O)cc1)N(C)C(=O)[C@H](CO)NC(=O)[C@@H](Cc1cccnc1)NC(=O)[C@@H](Cc1ccc(Cl)cc1)NC(=O)[C@@H](Cc1ccc2ccccc2c1)NC(=O)CNC(=O)[C@@H]1CCCO1)C(=O)N[C@@H](CCCCNC(C)C)C(=O)N1CCC[C@H]1C(=O)N[C@H](C)C(N)=O [Example 92, N (S)-2-Tetrahydrofuroyl-Gly-D2Nal-D4ClPhe-D3Pal-Ser-NMeTyr-DHcit-Leu-Lys(N- epsilon-Isopropyl) -Pro-DAlaNH2] (X1-G[d2Nal][dPhe(4-Cl)][d3Pal]S[NMeY][d(hCit)]L[Lys(iPr)]P[dA]-NH2) | 0.0105 nM
CC(C)C[C@H](NC(=O)[C@@H](CCCCNC(N)=O)NC(=O)[C@H](Cc1ccc(O)cc1)NC(=O)[C@H](CO)NC(=O)[C@@H](Cc1cccnc1)NC(=O)[C@@H](Cc1ccc(Cl)cc1)NC(=O)[C@@H](Cc1ccc2ccccc2c1)NC(=O)CNC(=O)[C@@H]1CCCO1)C(=O)N[C@@H](CCCCNC(C)C)C(=O)N1CCC[C@H]1C(=O)N[C@H](C)C(N)=O [Example 93, N (S)-2-Tetrahydrofuroyl-Gly-D2Nal-D4ClPhe-D3Pal-Ser-Tyr-DHcit-Leu-Lys(N-epsilon-Isopropyl)-Pro-DAlaNH2] (X1-G[d2Nal][dPhe(4-Cl)][d3Pal]SY[d(hCit)]L[Lys(iPr)]P[dA]-NH2) | 0.00589 nM
CC(C)C[C@H](NC(=O)[C@@H](CCCCNC(=O)c1cccnc1)NC(=O)[C@H](Cc1ccc(O)cc1)N(C)C(=O)[C@H](CO)NC(=O)[C@@H](Cc1cccnc1)NC(=O)[C@@H](Cc1ccccc1)NC(=O)[C@@H](Cc1ccc2ccccc2c1)NC(=O)CNC(=O)[C@@H]1CCCO1)C(=O)N[C@@H](CCCCNC(C)C)C(=O)N1CCC[C@H]1C(=O)N[C@H](C)C(N)=O [Example 94, N (S)-2-Tetrahydrofuroyl-Gly-D2Nal-DPhe-D3Pal-Ser-NMeTyr-DLys(Nic)-Leu-Lys(N-epsilon-Isopropyl)-Pro-DAlaNH2] (X1-G[d2Nal][dF][d3Pal]S[NMeY][dK](Nicotinoyl)L[Lys(iPr)]P[dA]-NH2) | 0.00832 nM
CC(C)C[C@H](NC(=O)[C@@H](CCCCNC(N)=O)NC(=O)[C@H](Cc1ccc(O)cc1)NC(=O)[C@H](CO)NC(=O)[C@@H](Cc1cccnc1)NC(=O)[C@@H](Cc1ccc(Cl)cc1)NC(=O)[C@@H](Cc1ccc2ccccc2c1)NC(=O)CNC(=O)[C@@H]1CCCO1)C(=O)N[C@@H](CCCNC(=N)N)C(=O)N1CCC[C@H]1C(=O)N[C@H](C)C(N)=O [Example 95, N-(S)-2-Tetrahydrofuroyl-Gly-D2Nal-D4ClPhe-D3Pal-Ser-Tyr-DHcit-Leu-Arg-Pro- DAlaNH2] (X1-G[d2Nal][dPhe(4-Cl)][d3Pal]SY[d(hCit)]LRP[dA]-NH2) | 0.00759 nM
CC(C)C[C@H](NC(=O)[C@@H](CCCCNC(=O)c1cccnc1)NC(=O)[C@H](Cc1ccc(O)cc1)N(C)C(=O)[C@H](CO)NC(=O)[C@@H](Cc1cccnc1)NC(=O)[C@@H](Cc1ccc(Cl)cc1)NC(=O)[C@@H](Cc1ccc2ccccc2c1)NC(=O)CCNC(=O)[C@@H]1CCCO1)C(=O)N[C@@H](CCCCNC(C)C)C(=O)N1CCC[C@H]1C(=O)N[C@H](C)C(N)=O [Example 96, N (S)-2-Tetrahydrofuroyl-Bala-D2Nal-D4ClPhe-D3Pal-Ser-NMeTyr-DLys(Nic)-Leu-Lys(Isp)-Pro-DAlaNH2] ({X1-βAla}-[d2Nal][dPhe(4-Cl)][d3Pal]S[NMeY][dK](Nicotinoyl)L[Lys(iPr)]P[dA]-NH2) | 0.0275 nM
CC(C)C[C@H](NC(=O)[C@@H](CCCCNC(=O)c1cccnc1)NC(=O)[C@H](Cc1ccc(O)cc1)N(C)C(=O)[C@H](CO)NC(=O)[C@@H](Cc1cccnc1)NC(=O)[C@@H](Cc1ccc(Cl)cc1)NC(=O)[C@@H](Cc1ccc2ccccc2c1)NC(=O)CCCNC(=O)[C@@H]1CCCO1)C(=O)N[C@@H](CCCCNC(C)C)C(=O)N1CCC[C@H]1C(=O)N[C@H](C)C(N)=O [Example 97, N (S)-2-Tetrahydrofuroyl-Gaba-D2Nal-D4ClPhe-D3Pal-Ser-NMeTyr-DLys(Nic)-Leu-Lys(Isp)-Pro-DAlaNH2] ({X1-GABA}-[d2Nal][dPhe(4-Cl)][d3Pal]S[NMeY][dK](Nicotinoyl)L[Lys(iPr)]P[dA]-NH2) | 0.0339 nM
